Assays:
Type in all cases: in vivo
Triticum aestivum = test: Post-emergence crop plant compatibility
Method: (§1) Seeds of monocotyledonous and dicotyledonous weeds and crop plants were placed in sandy loam in plastic or wood-fiber pots, covered with soil and cultivated in a greenhouse under controlled growth conditions. 2 to 3 weeks after sowing, the test plants were treated at the one-leaf stage. The compounds of the invention, formulated in the form of wettable powders (WP) or as emulsion concentrates (EC), were then sprayed onto the green parts of the plants as aqueous suspension or emulsion with addition of 0.5% additive at a water application rate of […] (converted). After the test plants had been kept in the greenhouse under optimum growth conditions for about 3 weeks, the activity of the preparations was rated visually in comparison to untreated controls. For example, 100% activity=the plants have died, 0% activity=like control plants.
(§2) Here, the observed effects on selected crop plants are stated in comparison to the untreated controls (values in %).

Oryza sativa = test: Post-emergence crop plant compatibility
Method: as §1, §2

Pharbitis purpurea = test: Post-emergence herbicidal action; details: for pest or weed control at 5 g/ha / pest or weed control at 20 g/ha: Ipomoea purpurea, 504 h, read-out: Pharbitis purpurea (efficacy in %)
Method: as §1, with “plants. Tables A1 to A14 below show the effects of selected compounds of the general formula (I) according to Tables I.1 to I.34 on various harmful plants and at an application rate corresponding to 20 g/ha and less, which were obtained by the experimental procedure mentioned above.” for “plants.”

Avena fatua = test: Post-emergence herbicidal action; details: application rate 20 g/ha
Method: as §1, with “plants. Tables A1 to A14 below show the effects of selected compounds of the general formula (I) according to Tables I.1 to I.34 on various harmful plants and at an application rate corresponding to 20 g/ha and less, which were obtained by the experimental procedure mentioned above.” for “plants.”

Alopecurus myosuroides = test: Post-emergence herbicidal action
Method: as §1, with “plants. Tables A1 to A14 below show the effects of selected compounds of the general formula (I) according to Tables I.1 to I.34 on various harmful plants and at an application rate corresponding to 20 g/ha and less, which were obtained by the experimental procedure mentioned above.” for “plants.”

Lolium rigidum = test: Post-emergence herbicidal action; details: application rate 20 g/ha
Method: as §1, with “plants. Tables A1 to A14 below show the effects of selected compounds of the general formula (I) according to Tables I.1 to I.34 on various harmful plants and at an application rate corresponding to 20 g/ha and less, which were obtained by the experimental procedure mentioned above.” for “plants.”

Abutilon theophrasti = test: Post-emergence herbicidal action; details: for pest or weed control at 5 g/ha / pest or weed control at 20 g/ha: Abutilon theophrasti, 504 h, read-out: Abutilon theophrasti (efficacy in %)
Method: as §1, with “plants. Tables A1 to A14 below show the effects of selected compounds of the general formula (I) according to Tables I.1 to I.34 on various harmful plants and at an application rate corresponding to 20 g/ha and less, which were obtained by the experimental procedure mentioned above.” for “plants.”

Polygonum convolvulus = test: Post-emergence herbicidal action; details: Fallopia convolvulus, 504 h, read-out: Polygonum convolvulus (efficacy in %); for pest or weed control at 5 g/ha: application rate 5 g/ha; for pest or weed control at 20 g/ha: application rate 20 g/ha
Method: as §1, with “plants. Tables A1 to A14 below show the effects of selected compounds of the general formula (I) according to Tables I.1 to I.34 on various harmful plants and at an application rate corresponding to 20 g/ha and less, which were obtained by the experimental procedure mentioned above.” for “plants.”

Matricaria inodora = test: Post-emergence herbicidal action; details: for pest or weed control at 5 g/ha / pest or weed control at 20 g/ha: Tripleurospermum inodorum, 504 h, read-out: Matricaria inodora (efficacy in %)
Method: as §1, with “plants. Tables A1 to A14 below show the effects of selected compounds of the general formula (I) according to Tables I.1 to I.34 on various harmful plants and at an application rate corresponding to 20 g/ha and less, which were obtained by the experimental procedure mentioned above.” for “plants.”

Digitaria sanguinalis = test: Post-emergence herbicidal action; details: 504 h, read-out: Digitaria sanguinalis (efficacy in %); for pest or weed control at 5 g/ha: application rate 5 g/ha; for pest or weed control at 20 g/ha: application rate 20 g/ha
Method: as §1, with “plants. Tables A1 to A14 below show the effects of selected compounds of the general formula (I) according to Tables I.1 to I.34 on various harmful plants and at an application rate corresponding to 20 g/ha and less, which were obtained by the experimental procedure mentioned above.” for “plants.”

Setaria viridis = test: Post-emergence herbicidal action; details: 504 h, read-out: Setaria viridis (efficacy in %); for pest or weed control at 5 g/ha: application rate 5 g/ha; for pest or weed control at 20 g/ha: application rate 20 g/ha
Method: as §1, with “plants. Tables A1 to A14 below show the effects of selected compounds of the general formula (I) according to Tables I.1 to I.34 on various harmful plants and at an application rate corresponding to 20 g/ha and less, which were obtained by the experimental procedure mentioned above.” for “plants.”

Echinochloa crus-galli = test: Post-emergence herbicidal action; details: for pest or weed control at 5 g/ha / pest or weed control at 20 g/ha: Echinochloa crus-galli, 504 h, read-out: Echinochloa crus-galli (efficacy in %)
Method: as §1, with “plants. Tables A1 to A14 below show the effects of selected compounds of the general formula (I) according to Tables I.1 to I.34 on various harmful plants and at an application rate corresponding to 20 g/ha and less, which were obtained by the experimental procedure mentioned above.” for “plants.”

Amaranthus retroflexus = test: Post-emergence herbicidal action; details: for pest or weed control at 5 g/ha / pest or weed control at 20 g/ha: Amaranthus retroflexus, 504 h, read-out: Amaranthus retroflexus (efficacy in %)
Method: as §1, with “plants. Tables A1 to A14 below show the effects of selected compounds of the general formula (I) according to Tables I.1 to I.34 on various harmful plants and at an application rate corresponding to 20 g/ha and less, which were obtained by the experimental procedure mentioned above.” for “plants.”

Veronica persica = test: Post-emergence herbicidal action; details: for pest or weed control at 5 g/ha / pest or weed control at 20 g/ha: Veronica persica, 504 h, read-out: Veronica persica (efficacy in %)
Method: as §1, with “plants. Tables A1 to A14 below show the effects of selected compounds of the general formula (I) according to Tables I.1 to I.34 on various harmful plants and at an application rate corresponding to 20 g/ha and less, which were obtained by the experimental procedure mentioned above.” for “plants.”

Viola tricolor = test: Post-emergence herbicidal action; details: for pest or weed control at 5 g/ha / pest or weed control at 20 g/ha: Viola tricolor, 504 h, read-out: Viola tricolor (efficacy in %)
Method: as §1, with “plants. Tables A1 to A14 below show the effects of selected compounds of the general formula (I) according to Tables I.1 to I.34 on various harmful plants and at an application rate corresponding to 20 g/ha and less, which were obtained by the experimental procedure mentioned above.” for “plants.”

Zea mays = test: Post-emergence crop plant compatibility
Method: as §1, §2

Glycine max = test: Post-emergence crop plant compatibility; details: application rate 5 g/ha
Method: as §1, §2

Stellaria media = test: Post-emergence herbicidal action; details: application rate 5 g/ha
Method: as §1, with “plants. Tables A1 to A14 below show the effects of selected compounds of the general formula (I) according to Tables I.1 to I.34 on various harmful plants and at an application rate corresponding to 20 g/ha and less, which were obtained by the experimental procedure mentioned above.” for “plants.”

Hordeum murinum = test: Post-emergence herbicidal action
Method: as §1, with “plants. Tables A1 to A14 below show the effects of selected compounds of the general formula (I) according to Tables I.1 to I.34 on various harmful plants and at an application rate corresponding to 20 g/ha and less, which were obtained by the experimental procedure mentioned above.” for “plants.”

Compound	Triticum aestivum (efficacy in %) (Triticum aestivum; application rate 1.25 g/ha) [%]	Oryza sativa (efficacy in %) (Oryza sativa; application rate 1.25 g/ha) [%]	pest or weed control at 5 g/ha (Pharbitis purpurea; application rate 5 g/ha) [%]	pest or weed control at 20 g/ha (Pharbitis purpurea; application rate 20 g/ha) [%]	Avena fatua (efficacy in %) (Avena fatua) [%]	Alopecurus myosuroides (efficacy in %) (Alopecurus myosuroides; application rate 20 g/ha) [%]	Lolium rigidum (efficacy in %) (Lolium rigidum) [%]	pest or weed control at 5 g/ha (Abutilon theophrasti; application rate 5 g/ha) [%]	pest or weed control at 20 g/ha (Abutilon theophrasti; application rate 20 g/ha) [%]	pest or weed control at 5 g/ha (Polygonum convolvulus) [%]	pest or weed control at 20 g/ha (Polygonum convolvulus) [%]	pest or weed control at 5 g/ha (Matricaria inodora; application rate 5 g/ha) [%]	pest or weed control at 20 g/ha (Matricaria inodora; application rate 20 g/ha) [%]	pest or weed control at 5 g/ha (Digitaria sanguinalis) [%]	pest or weed control at 20 g/ha (Digitaria sanguinalis) [%]	pest or weed control at 5 g/ha (Setaria viridis) [%]	pest or weed control at 20 g/ha (Setaria viridis) [%]	pest or weed control at 5 g/ha (Echinochloa crus-galli; application rate 5 g/ha) [%]	pest or weed control at 20 g/ha (Echinochloa crus-galli; application rate 20 g/ha) [%]	pest or weed control at 5 g/ha (Amaranthus retroflexus; application rate 5 g/ha) [%]	other results
CCOCCOC(=O)COc1ncccc1Sc1cc(-n2c(=O)cc(C(F)(F)F)n(N)c2=O)c(F)cc1Cl [I.1-2, 2-Ethoxyethyl {[3-({5-[3-amino-2,6-dioxo-4-(trifluoromethyl)-3,6-dihydropyrimidin-1(2H)-yl]-2-chloro-4-fluorophenyl}sulfanyl)pyridin-2-yl]oxy}acetate]	0	0	100	100	80	100	80	100	100	100	100	100	100	100	100	100	100	90	100	100	Oryza sativa (efficacy in %) (Oryza sativa; application rate 5 g/ha): 10%; pest or weed control at 20 g/ha (Amaranthus retroflexus; application rate 20 g/ha): 100%; pest or weed control at 5 g/ha (Veronica persica; application rate 5 g/ha): 100%; pest or weed control at 20 g/ha (Veronica persica; application rate 20 g/ha): 100%; pest or weed control at 5 g/ha (Viola tricolor; application rate 5 g/ha): 100%; pest or weed control at 20 g/ha (Viola tricolor; application rate 20 g/ha): 100%
COCCOCCOC(=O)COc1ncccc1Sc1cc(-n2c(=O)cc(C(F)(F)F)n(N)c2=O)c(F)cc1Cl [I.1-23, 2-(2-Methoxyethoxy)ethyl {[3-({5-[3-amino-2,6-dioxo-4-(trifluoromethyl)-3,6-dihydropyrimidin-1(2H)-yl]-2-chloro-4-fluorophenyl}sulfanyl)pyridin-2-yl]oxy}acetate]	20	20	80	100	100	90	80	100	100	100	100	80	100	100	100	100	100	80	100	100	Zea mays (efficacy in %) (Zea mays; application rate 1.25 g/ha): 20%; pest or weed control at 20 g/ha (Amaranthus retroflexus; application rate 20 g/ha): 100%; pest or weed control at 5 g/ha (Veronica persica; application rate 5 g/ha): 100%; pest or weed control at 20 g/ha (Veronica persica; application rate 20 g/ha): 100%; pest or weed control at 5 g/ha (Viola tricolor; application rate 5 g/ha): 100%; pest or weed control at 20 g/ha (Viola tricolor; application rate 20 g/ha): 100%
COC(=O)COc1ncccc1Sc1cc(-n2c(=O)cc(C(F)(F)F)n(N)c2=O)c(F)cc1Cl [I.1-441, Methyl {[3-({5-[3-amino-2,6-dioxo-4-(trifluoromethyl)-3,6-dihydropyrimidin-1(2H)-yl]-2-chloro-4-fluorophenyl}sulfanyl)pyridin-2-yl]oxy}acetate]	20	10	100	100	–	–	80	100	100	80	100	100	100	90	100	100	100	80	100	100	Zea mays (efficacy in %) (Zea mays; application rate 1.25 g/ha): 20%; Oryza sativa (efficacy in %) (Oryza sativa; application rate 5 g/ha): 20%; Glycine max (efficacy in %) (Glycine max): 20%; Stellaria media (efficacy in %) (Stellaria media): 100%; Hordeum murinum (efficacy in %) (Hordeum murinum; application rate 5 g/ha): 80%; Hordeum murinum (efficacy in %) (Hordeum murinum; application rate 20 g/ha): 100%; pest or weed control at 20 g/ha (Amaranthus retroflexus; application rate 20 g/ha): 100%; pest or weed control at 5 g/ha (Veronica persica; application rate 5 g/ha): 100%; pest or weed control at 20 g/ha (Veronica persica; application rate 20 g/ha): 100%; pest or weed control at 5 g/ha (Viola tricolor; application rate 5 g/ha): 100%; pest or weed control at 20 g/ha (Viola tricolor; application rate 20 g/ha): 100%
C=CCOC(=O)COc1ncccc1Sc1cc(-n2c(=O)cc(C(F)(F)F)n(N)c2=O)c(F)cc1Cl [I.1-471]	10	0	–	–	80	100	80	–	–	–	–	–	–	–	–	–	–	–	–	–	Zea mays (efficacy in %) (Zea mays; application rate 5 g/ha): 20%; Triticum aestivum (efficacy in %) (Triticum aestivum; application rate 5 g/ha): 20%; Pharbitis purpurea (efficacy in %) (Pharbitis purpurea; application rate 5 g/ha): 100%; Pharbitis purpurea (efficacy in %) (Pharbitis purpurea; application rate 20 g/ha): 100%; Alopecurus myosuroides (efficacy in %) (Alopecurus myosuroides; application rate 5 g/ha): 80%; Abutilon theophrasti (efficacy in %) (Abutilon theophrasti; application rate 5 g/ha): 100%; Abutilon theophrasti (efficacy in %) (Abutilon theophrasti; application rate 20 g/ha): 100%; Matricaria inodora (efficacy in %) (Matricaria inodora; application rate 5 g/ha): 100%; Matricaria inodora (efficacy in %) (Matricaria inodora; application rate 20 g/ha): 100%; Echinochloa crus-galli (efficacy in %) (Echinochloa crus-galli; application rate 5 g/ha): 90%; Echinochloa crus-galli (efficacy in %) (Echinochloa crus-galli; application rate 20 g/ha): 100%; Amaranthus retroflexus (efficacy in %) (Amaranthus retroflexus; application rate 5 g/ha): 100%; Amaranthus retroflexus (efficacy in %) (Amaranthus retroflexus; application rate 20 g/ha): 100%; Veronica persica (efficacy in %) (Veronica persica; application rate 5 g/ha): 100%; Veronica persica (efficacy in %) (Veronica persica; application rate 20 g/ha): 100%; Viola tricolor (efficacy in %) (Viola tricolor; application rate 5 g/ha): 100%; Viola tricolor (efficacy in %) (Viola tricolor; application rate 20 g/ha): 100%

Source: patent US20220274954A1, “SUBSTITUTED N-PHENYL-N-AMINOUARCILS AND SALTS THEREOF AND USE THEREOF AS HERBICIDAL AGENTS” (Bayer Aktiengesellschaft, priority 2019, published 2022)
